According to patent US12077503B2, “Substituted cyclic amides and their use as herbicides” (FMC CORPORATION, priority 2015, dated 2024):

Columns and labels:
Format in all cases: in vivo
[1] = test system: Galium (catchweed bedstraw, Galium aparine); experiment: Test C postemergence; conditions: scale 0 to 100, 0 no effect, 100 complete control
How it was run: (§1)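 Visual rating, 0–100 scale (0 = no effect, 100 = complete control) versus controls, 13–15 d after treatment. Compounds in non-phytotoxic solvent plus surfactant; applied preemergence to seeds in loam/sand soil or postemergence to 1- to 4-leaf plants (2–18 cm) in peat/vermiculite medium; greenhouse-held.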

Kochia (Kochia scoparia) = experiment: Test C postemergence; conditions: scale 0 to 100, 0 no effect, 100 complete control
How it was run: as §1

[2] = test system: barnyardgrass (Echinochloa crus-galli); experiment: Test C postemergence; conditions: scale 0 to 100, 0 no effect, 100 complete control
How it was run: as §1

[3] = test system: blackgrass (Alopecurus myosuroides); experiment: Test C postemergence; conditions: scale 0 to 100, 0 no effect, 100 complete control
How it was run: as §1

[4] = test system: chickweed (common chickweed, Stellaria media); experiment: Test C postemergence; conditions: scale 0 to 100, 0 no effect, 100 complete control
How it was run: as §1

[5] = test system: crabgrass, large (large crabgrass, Digitaria sanguinalis); experiment: Test C postemergence; conditions: scale 0 to 100, 0 no effect, 100 complete control
How it was run: as §1

[6] = test system: foxtail, giant (giant foxtail, Setaria faberii); experiment: Test C postemergence; conditions: scale 0 to 100, 0 no effect, 100 complete control
How it was run: as §1

[7] = test system: lambsquarters (Chenopodium album); experiment: Test C postemergence; conditions: scale 0 to 100, 0 no effect, 100 complete control
How it was run: as §1

[8] = test system: morningglory (Ipomoea coccinea); experiment: Test C postemergence; conditions: scale 0 to 100, 0 no effect, 100 complete control
How it was run: as §1

[9] = test system: nutsedge, yellow (yellow nutsedge, Cyperus esculentus); experiment: Test C postemergence; conditions: scale 0 to 100, 0 no effect, 100 complete control
How it was run: as §1

[10] = test system: oat, wild (wild oat, Avena fatua); experiment: Test C postemergence; conditions: scale 0 to 100, 0 no effect, 100 complete control
How it was run: as §1

[11] = test system: oilseed rape (Brassica napus); experiment: Test C postemergence; conditions: scale 0 to 100, 0 no effect, 100 complete control
How it was run: as §1

[12] = test system: pigweed (Amaranthus retroflexus); experiment: Test C postemergence; conditions: scale 0 to 100, 0 no effect, 100 complete control
How it was run: as §1

[13] = test system: ryegrass, Italian (Italian ryegrass, Lolium multiflorum); experiment: Test C postemergence; conditions: scale 0 to 100, 0 no effect, 100 complete control
How it was run: as §1

soybean (Glycine max) = experiment: Test C postemergence; conditions: scale 0 to 100, 0 no effect, 100 complete control
How it was run: as §1

[14] = test system: velvetleaf (Abutilon theophrasti); experiment: Test C postemergence; conditions: scale 0 to 100, 0 no effect, 100 complete control
How it was run: as §1

[15] = test system: waterhemp (common waterhemp, Amaranthus rudis); experiment: Test C postemergence; conditions: scale 0 to 100, 0 no effect, 100 complete control
How it was run: as §1

[16] = test system: wheat (winter wheat, Triticum aestivum); experiment: Test C postemergence; conditions: scale 0 to 100, 0 no effect, 100 complete control
How it was run: as §1

[17] = test system: sedge, umbrella (small-flower umbrella sedge, Cyperus difformis); experiment: Test C flooded paddy test; conditions: Flood; for Plant response rating (scale of 0 to 100), Sedge, Umbrella: 0 is no effect, 100 is complete control
How it was run: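 Test compounds were dosed straight into the flood water of pots holding 2-leaf-stage plants, with water kept 3 cm above the soil. Greenhouse plants were scored visually against controls after 13 to 15 d, from 0 (no effect) to 100 (complete control).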

`CN1CC(c2ccc(F)c(F)c2)C(C(=O)Nc2ccccc2C(F)(F)F)C1=O` (stereo not drawn) [Compound 641] was tested, and the “Plant response rating, Galium” value ([1]; 31 g ai/ha) was 40, the “Plant response rating, Galium” value ([1]; 62 g ai/ha) was 60 and the “Plant response rating, Galium” value ([1]; 125 g ai/ha) was 60. The “Plant response rating, Galium” value ([1]; 250 g ai/ha) was 65, the “Plant response rating, Kochia” value (Kochia (Kochia scoparia); 31 g ai/ha) was 0 and the “Plant response rating, Kochia” value (Kochia (Kochia scoparia); 62 g ai/ha) was 0. The “Plant response rating, Kochia” value (Kochia (Kochia scoparia); 125 g ai/ha) was 0, the “Plant response rating, Kochia” value (Kochia (Kochia scoparia); 250 g ai/ha) was 40 and the “Plant response rating, Barnyardgrass” value ([2]; 31 g ai/ha) was 0. The “Plant response rating, Barnyardgrass” value ([2]; 62 g ai/ha) was 10, the “Plant response rating, Barnyardgrass” value ([2]; 125 g ai/ha) was 35 and the “Plant response rating, Barnyardgrass” value ([2]; 250 g ai/ha) was 65. The “Plant response rating, Blackgrass” value ([3]; 31 g ai/ha) was 0, the “Plant response rating, Blackgrass” value ([3]; 62 g ai/ha) was 0 and the “Plant response rating, Blackgrass” value ([3]; 125 g ai/ha) was 0. For the same compound, the “Plant response rating, Blackgrass” value ([3]; 250 g ai/ha) was 0, the “Plant response rating, Chickweed” value ([4]; 31 g ai/ha) was 0 and the “Plant response rating, Chickweed” value ([4]; 62 g ai/ha) was 0. For the same compound, the “Plant response rating, Chickweed” value ([4]; 125 g ai/ha) was 50, the “Plant response rating, Chickweed” value ([4]; 250 g ai/ha) was 55 and the “Plant response rating, Crabgrass, Large” value ([5]; 31 g ai/ha) was 10. For the same compound, the “Plant response rating, Crabgrass, Large” value ([5]; 62 g ai/ha) was 50, the “Plant response rating, Crabgrass, Large” value ([5]; 125 g ai/ha) was 70 and the “Plant response rating, Crabgrass, Large” value ([5]; 250 g ai/ha) was 70. The “Plant response rating, Foxtail, Giant” value ([6]; 31 g ai/ha) was 0, the “Plant response rating, Foxtail, Giant” value ([6]; 62 g ai/ha) was 10 and the “Plant response rating, Foxtail, Giant” value ([6]; 125 g ai/ha) was 65. The “Plant response rating, Foxtail, Giant” value ([6]; 250 g ai/ha) was 80, the “Plant response rating, Lambsquarters” value ([7]; 31 g ai/ha) was 5 and the “Plant response rating, Lambsquarters” value ([7]; 62 g ai/ha) was 15. The “Plant response rating, Lambsquarters” value ([7]; 125 g ai/ha) was 5, the “Plant response rating, Lambsquarters” value ([7]; 250 g ai/ha) was 30 and the “Plant response rating, Morningglory” value ([8]; 31 g ai/ha) was 0. For the same compound, the “Plant response rating, Morningglory” value ([8]; 62 g ai/ha) was 15, the “Plant response rating, Morningglory” value ([8]; 125 g ai/ha) was 35 and the “Plant response rating, Morningglory” value ([8]; 250 g ai/ha) was 40. The “Plant response rating, Nutsedge, Yellow” value ([9]; 31 g ai/ha) was 0, the “Plant response rating, Nutsedge, Yellow” value ([9]; 62 g ai/ha) was 0 and the “Plant response rating, Nutsedge, Yellow” value ([9]; 125 g ai/ha) was 0. The “Plant response rating, Nutsedge, Yellow” value ([9]; 250 g ai/ha) was 0, the “Plant response rating, Oat, Wild” value ([10]; 31 g ai/ha) was 0 and the “Plant response rating, Oat, Wild” value ([10]; 62 g ai/ha) was 0. For the same compound, the “Plant response rating, Oat, Wild” value ([10]; 125 g ai/ha) was 0, the “Plant response rating, Oat, Wild” value ([10]; 250 g ai/ha) was 0 and the “Plant response rating, Oilseed Rape” value ([11]; 31 g ai/ha) was 20. The “Plant response rating, Oilseed Rape” value ([11]; 62 g ai/ha) was 45, the “Plant response rating, Oilseed Rape” value ([11]; 125 g ai/ha) was 45 and the “Plant response rating, Oilseed Rape” value ([11]; 250 g ai/ha) was 55. The “Plant response rating, Pigweed” value ([12]; 31 g ai/ha) was 0, the “Plant response rating, Pigweed” value ([12]; 62 g ai/ha) was 0 and the “Plant response rating, Pigweed” value ([12]; 125 g ai/ha) was 25. For the same compound, the “Plant response rating, Pigweed” value ([12]; 250 g ai/ha) was 50, the “Plant response rating, Ryegrass, Italian” value ([13]; 31 g ai/ha) was 0 and the “Plant response rating, Ryegrass, Italian” value ([13]; 62 g ai/ha) was 0. The “Plant response rating, Ryegrass, Italian” value ([13]; 125 g ai/ha) was 10, the “Plant response rating, Ryegrass, Italian” value ([13]; 250 g ai/ha) was 10 and the “Plant response rating, Soybean” value (soybean (Glycine max); 31 g ai/ha) was 0. For the same compound, the “Plant response rating, Soybean” value (soybean (Glycine max); 62 g ai/ha) was 0, the “Plant response rating, Soybean” value (soybean (Glycine max); 125 g ai/ha) was 5 and the “Plant response rating, Soybean” value (soybean (Glycine max); 250 g ai/ha) was 15. For the same compound, the “Plant response rating, Velvetleaf” value ([14]; 31 g ai/ha) was 40, the “Plant response rating, Velvetleaf” value ([14]; 62 g ai/ha) was 40 and the “Plant response rating, Velvetleaf” value ([14]; 250 g ai/ha) was 50. The “Plant response rating, Waterhemp” value ([15]; 31 g ai/ha) was 10, the “Plant response rating, Waterhemp” value ([15]; 62 g ai/ha) was 10 and the “Plant response rating, Waterhemp” value ([15]; 125 g ai/ha) was 25. The “Plant response rating, Waterhemp” value ([15]; 250 g ai/ha) was 30, the “Plant response rating, Wheat” value ([16]; 31 g ai/ha) was 0 and the “Plant response rating, Wheat” value ([16]; 62 g ai/ha) was 0. The “Plant response rating, Wheat” value ([16]; 125 g ai/ha) was 0 and the “Plant response rating, Wheat” value ([16]; 250 g ai/ha) was 0.
For `O=C1NCC(c2cccc(OC(F)(F)C(F)F)c2)C1C(=O)Nc1cccc(F)c1F` (racemic) [Compound 697], the “Plant response rating, Sedge, Umbrella” value ([17]; 31 g ai/ha, scale 0 to 100 (0 no effect, 100 complete control), 13 to 15 d) was 0, the “Plant response rating (scale of 0 to 100), Sedge, Umbrella” value ([17]; 62 g ai/ha) was 0 and the “Plant response rating (scale of 0 to 100), Sedge, Umbrella” value ([17]; 125 g ai/ha) was 0. The “Plant response rating (scale of 0 to 100), Sedge, Umbrella” value ([17]; 250 g ai/ha) was 0.
